Tests used:
Type in all cases: cell-based
[1] = target: T1, ABL1 (Homo sapiens, UniProt P00519); test: Expression proteomics in THP-1 cells: ABL1 protein level; conditions: ABL1, THP-1 cells
T1 construct: endogenous in cells; host or cells: THP-1
Experimental: (§1) THP-1 cells were seeded at a concentration of 3×10^6 cells in T175 flasks with 60 mL growth medium (RPMI1640+10% FBS). […] of a 10× compound solution prepared in growth medium (DMSO), CEREBLON_PROTAC) was added and the cells were treated for the indicated time points (6 or 24 h) at 37° C., 5% CO2. For harvesting the cells were collected into falcon tubes on ice, centrifuged and washed twice in cold PBS (Life technologies). After the last washing step the supernatant was removed and the pellets were snap-frozen in liquid N2 and stored at −80° C. and lysed in 2% SDS for 3 min at 95° C. in a thermomixer (Thermo Fisher Scientific), followed by digestion of DNA with Benzonase at 37° C. for 1.5 h. Lysate was cleared by centrifugation an protein concentration in supernatant was determined by BCA assay.
(§2) Leukemia 25, 89-100 (2011).
(§3) Samples were dried in vacuo and resuspended in 0.05% trifluoroacetic acid in water. Of the sample, 50% was injected into an Ultimate3000 nanoRLSC (Dionex, Sunnyvale, Calif.) coupled to a Q Exactive HF (Thermo Fisher Scientific). Peptides were trapped on a 5 mm×300 μm C18 column (Pepmap100, 5 μm, 300 Å, Thermo Fisher Scientific) in water with 0.05% TFA at 60° C. Separation was performed on custom 50 cm×[…] (ID) reversed-phase columns (Reprosil) at 55° C. Gradient elution was performed from 2% acetonitrile to 40% acetonitrile in 0.1% formic acid and 3.5% DMSO over 2 hours. Samples were online injected into Q-Exactive HF mass spectrometers operating with a data-dependent top 10 method. MS spectra were acquired by using 60.000 resolution and an ion target of 3×10^6. Higher energy collisional dissociation (HCD) scans were performed with 35% NCE at 30.000 resolution (at m/z 200), and the ion target settings was set to 2×10^5 so as to avoid coalescence (Werner, T. et al. Ion Coalescence of Neutron Encoded TMT 10-Plex Reporter Ions. Anal. Chem. 86, 3594-3601 (2014).
(§4) The first search was performed with 30 parts per million mass tolerance for peptide precursors and 30 mD (HCD) mass tolerance for fragment ions followed by a final search using recalibrated data with a 10 parts per million mass tolerance for peptide precursors and 20 mD (HCD) mass tolerance for fragment ions. Carbamidomethylation of cysteine residues and TMT modification of lysine residues were set as fixed modifications and methionine oxidation, and N-terminal acetylation of proteins and TMT modification of peptide N-termini were set as variable modifications. […]
(§5) Nat Biotech 29, 255-265 (2011). this measure is referred to as ion area Savitski, M. M. et al. Delayed Fragmentation and Optimized Isolation Width Settings for Improvement of Protein Identification and Accuracy of Isobaric Mass Tag Quantification on Orbitrap-Type Mass Spectrometers. […]

[2] = target: T2, TEC (Homo sapiens, UniProt P42680); test: Expression proteomics in THP-1 cells: TEC protein level
T2 construct: endogenous in cells; host or cells: THP-1
T2 sequence (P42680 1-631): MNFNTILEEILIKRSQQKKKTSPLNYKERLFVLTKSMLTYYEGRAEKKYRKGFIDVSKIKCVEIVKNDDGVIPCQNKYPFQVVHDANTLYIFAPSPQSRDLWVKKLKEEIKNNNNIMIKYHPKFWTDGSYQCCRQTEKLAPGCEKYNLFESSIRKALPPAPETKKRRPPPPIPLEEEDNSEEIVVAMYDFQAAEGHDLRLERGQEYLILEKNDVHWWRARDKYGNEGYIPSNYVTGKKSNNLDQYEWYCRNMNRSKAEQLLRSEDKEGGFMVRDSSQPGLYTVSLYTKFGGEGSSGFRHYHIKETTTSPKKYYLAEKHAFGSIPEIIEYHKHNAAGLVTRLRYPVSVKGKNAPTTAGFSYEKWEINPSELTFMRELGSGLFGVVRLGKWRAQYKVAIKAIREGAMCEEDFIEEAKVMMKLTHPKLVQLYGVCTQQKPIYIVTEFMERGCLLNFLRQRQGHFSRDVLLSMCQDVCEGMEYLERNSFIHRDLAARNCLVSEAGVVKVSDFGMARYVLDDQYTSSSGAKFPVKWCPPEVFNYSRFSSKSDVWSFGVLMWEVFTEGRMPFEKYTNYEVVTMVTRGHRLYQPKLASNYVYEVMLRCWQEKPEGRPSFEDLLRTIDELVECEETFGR
Experimental: as §1, §2, §3, §4, §5

[3] = target: T3, MAPK9 (Homo sapiens, UniProt P45984); test: Expression proteomics in THP-1 cells: MAPK9 protein level; conditions: MAPK9, THP-1 cells
T3 construct: endogenous in cells; host or cells: THP-1
T3 sequence (P45984 whole entry): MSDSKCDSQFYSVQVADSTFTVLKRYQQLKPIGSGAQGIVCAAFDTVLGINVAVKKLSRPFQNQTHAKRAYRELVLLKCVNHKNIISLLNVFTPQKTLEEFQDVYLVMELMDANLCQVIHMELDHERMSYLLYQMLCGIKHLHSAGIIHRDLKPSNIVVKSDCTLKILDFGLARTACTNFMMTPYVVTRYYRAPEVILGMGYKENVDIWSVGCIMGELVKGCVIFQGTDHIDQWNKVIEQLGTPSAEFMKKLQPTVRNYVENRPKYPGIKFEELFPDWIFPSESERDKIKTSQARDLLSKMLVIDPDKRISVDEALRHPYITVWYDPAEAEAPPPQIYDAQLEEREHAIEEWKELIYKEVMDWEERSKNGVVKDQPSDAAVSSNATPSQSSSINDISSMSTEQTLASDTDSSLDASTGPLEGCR
Experimental: as §1, §2, §3, §4, §5

T1 sequence (P00519 whole entry): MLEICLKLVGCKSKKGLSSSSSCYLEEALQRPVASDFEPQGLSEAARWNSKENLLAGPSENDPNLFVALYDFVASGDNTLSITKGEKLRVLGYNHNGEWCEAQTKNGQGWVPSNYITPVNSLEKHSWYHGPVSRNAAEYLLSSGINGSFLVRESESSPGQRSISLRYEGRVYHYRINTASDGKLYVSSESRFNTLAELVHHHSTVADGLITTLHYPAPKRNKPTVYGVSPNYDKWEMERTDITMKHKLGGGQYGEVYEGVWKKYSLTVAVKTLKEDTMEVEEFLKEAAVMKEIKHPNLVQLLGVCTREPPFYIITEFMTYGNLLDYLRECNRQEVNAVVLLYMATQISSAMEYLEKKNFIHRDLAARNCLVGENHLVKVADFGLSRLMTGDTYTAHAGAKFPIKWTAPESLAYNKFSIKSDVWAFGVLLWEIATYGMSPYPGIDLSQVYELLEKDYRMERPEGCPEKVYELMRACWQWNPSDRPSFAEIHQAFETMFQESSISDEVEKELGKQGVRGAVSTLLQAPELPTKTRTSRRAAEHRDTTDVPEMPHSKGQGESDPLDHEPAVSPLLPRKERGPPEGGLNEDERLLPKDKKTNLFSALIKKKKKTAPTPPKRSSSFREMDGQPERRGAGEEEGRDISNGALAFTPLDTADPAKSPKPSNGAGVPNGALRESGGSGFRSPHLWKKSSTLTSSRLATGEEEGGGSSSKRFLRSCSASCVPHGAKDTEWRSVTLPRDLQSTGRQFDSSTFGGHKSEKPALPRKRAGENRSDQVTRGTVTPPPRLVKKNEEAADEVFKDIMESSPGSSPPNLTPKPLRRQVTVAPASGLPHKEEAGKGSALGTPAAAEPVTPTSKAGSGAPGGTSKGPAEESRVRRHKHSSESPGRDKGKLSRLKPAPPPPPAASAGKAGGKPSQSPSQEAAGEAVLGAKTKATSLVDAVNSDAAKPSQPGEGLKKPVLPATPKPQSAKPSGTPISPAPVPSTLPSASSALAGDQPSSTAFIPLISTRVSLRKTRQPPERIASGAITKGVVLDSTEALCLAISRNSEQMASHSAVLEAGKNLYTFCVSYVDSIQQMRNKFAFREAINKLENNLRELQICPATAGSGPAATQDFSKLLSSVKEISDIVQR

CNC(=O)c1ccccc1Nc1nc(Nc2ccc(N3CCN(CCOCCOCCOCCOCC(=O)Nc4cccc5c4CN(C4CCC(=O)NC4=O)C5=O)CC3)cc2)ncc1Cl.O=CO (stereo not drawn) [CEREBLON_PROTAC, 14-(4-(4-((5-Chloro-4-((2-(methylcarbamoyl)phenyl)amino)pyrimidin-2-yl)amino)phenyl)piperazin-1-yl)-N-(2-(2,6-dioxopiperidin-3-yl)-1-oxoisoindolin-4-yl)-3,6,9,12-tetraoxatetradecan-1-amide formate]
log2 rel. fc. to vehicle control ([1]; 24 h 0.1 μM, n = 1): −0.72
log2 rel. fc. to vehicle control ([1]; 24 h 0.1 μM, n = 2): −0.70
log2 rel. fc. to vehicle control ([1]; 24 h 1 μM, n = 1): −1.43
log2 rel. fc. to vehicle control ([1]; 24 h 1 μM, n = 2): −1.63
log2 rel. fc. to vehicle control ([2]; 24 h 0.1 μM, n = 1): −1.83
log2 rel. fc. to vehicle control ([2]; 24 h 0.1 μM, n = 2): −2.38
log2 rel. fc. to vehicle control ([2]; 24 h 1 μM, n = 1): −1.74
log2 rel. fc. to vehicle control ([2]; 24 h 1 μM, n = 2): −1.94
log2 rel. fc. to vehicle control ([3]; 24 h 0.1 μM, n = 1): −0.69
log2 rel. fc. to vehicle control ([3]; 24 h 0.1 μM, n = 2): −0.98
log2 rel. fc. to vehicle control ([3]; 24 h 1 μM, n = 1): −1.83
log2 rel. fc. to vehicle control ([3]; 24 h 1 μM, n = 2): −1.75

From patent US20190210996A1, “NOVEL COMPOUNDS” (GLAXOSMITHKLINE INTELLECTUAL PROPERTY DEVELOPMENT LIMITED, priority 2016, published 2019)
